ChEMBL document CHEMBL1153449, “A new synthesis and an antiviral assessment of the 4'-fluoro derivative of 4'-deoxy-5'-noraristeromycin” (Bioorg Med Chem, 2009)
≈ marks a conversion by molar mass, not a printed value. Calls of active or inactive are those of the source. No cut-off for these calls is given here.

Experiments:
[1] = tested on: Cowpox virus; experiment: Antiviral activity against Cowpox virus; assay type: functional, organism-based
[2] = tested on: Measles morbillivirus; experiment: Antiviral activity against Measles virus by neutral red assay; assay type: functional, organism-based
[3] = Cytotoxicity against african green monkey CV1 cells; assay type: cell-based; settings: Chlorocebus aethiops, CV-1
[4] = tested on: Cytomegalovirus; experiment: Antiviral activity against Cytomegalovirus; assay type: functional, organism-based
[5] = tested on: Vaccinia virus; experiment: Antiviral activity against Vaccinia virus; assay type: functional, organism-based; settings: Orthopoxvirus vaccinia
[6] = tested on: Measles morbillivirus; experiment: Antiviral activity against Measles virus; assay type: functional, organism-based

SMILES	Activity [1]	IC50 [2] [µg/mL]	IC50 [3] [µg/mL]	Activity [4]	Activity [5]	IC50 [6] [µg/mL]
Nc1ncnc2c1ncn2[C@@H]1C[C@H](F)[C@@H](O)[C@H]1O	inactive	1.2 (≈ 4.74 µM)	21 (≈ 82.9 µM)	inactive	inactive	14 (≈ 55.3 µM)
Nc1ncnc2c1ncn2[C@@H]1CC(F)(F)[C@@H](O)[C@H]1O	Active	–	–	Active	Active	–
